The values that follow come from US8313949B2, “Detecting phospholipidosis and diagnosing lysosomal storage disorders” (Nextcea Inc., priority 2009, dated 2012).

Molecules are shown by their SMILES.

The test system of data set [1] is rats. The data set can be described thus: Urinary di-C22:6-BMP levels during 17-day azithromycin treatment (Example 4). Type of data set: in vivo, rat. The following applies: azithromycin 150 mg/kg/day, all isoforms (FIG. 9). How it is done: The methods described above were used to evaluate the tissue phospholipidosis induced by azithromycin (150 mg/kg/day) in rats over a 17-day period. Urine samples were collected from the rats on Days 11 and 17 and subjected to the assay. […] On Day 11, the mean level (n=5 rats per group) of di-C22:6-BMP in urine was increased by 2.6-fold in the rats treated with azithromycin compared to the controls. On Day 17, the mean level (n=5 rats per group) of di-C22:6-BMP in urine was increased approximately by 4.5-fold in the azithromycin treated rats compared to the control rats.

Data set [2] relates to rats. The following applies: rat, in vivo.
Procedure: The relationship between amiodarone, azithromycin, or citalopram exposure and the occurrence of drug-induced phospholipidosis was investigated in Fisher rats. Rats were treated with amiodarone (50 mg/kg/day), azithromycin (100 mg/kg/day), citalopram (90 mg/kg/day), or no drug for 4-weeks. Urine samples were collected from each animal and prepared for analysis using a liquid/liquid extraction method. The urine samples (200 μl urine per rat) were mixed with cold 3:1 chloroform/methanol (v/v) (400 μl) and vortexed before adding 0.1% formic acid (aq.) (100 μl). The samples were vortexed again, allowed to sit for 5 min, and centrifuged for 15 min. The bottom (organic) layer was carefully removed and concentrated to dryness. The samples were reconstituted to 30 μl with 0.05% formic acid in 2:1 acetonitrile/methanol (v/v).
The molecular profile of each urine sample was acquired using liquid chromatography coupled to mass spectrometry (LC/MS). Injections were made onto a 150×2.00 mm Synergi Hydro-RP column (Phenomenex, Torrance, Calif., USA) using an a Gilson 235 auto-injector (Gilson, Inc., Middletown, Wis., USA) and an Agilent 1100 binary pump (Agilent Technologies, Palo Alto, Calif., USA). Mobile phase A was 0.25% ammonium hydroxide, 0.05% formic acid in 88:12 methanol/water (v/v). Mobile phase B was 0.25% ammonium hydroxide, 0.05% formic acid in 80:20 methanol/hexane (v/v). […]
In data set [3] the test system is bronchoalveolar lavage (BAL) cells. The following applies: patients with amiodarone pulmonary toxicity; Martin and Standing 1988; cited from earlier work.

As for `CC[C@H]1OC(=O)[C@H](C)[C@@H](O[C@H]2C[C@@](C)(OC)[C@@H](O)[C@H](C)O2)[C@H](C)[C@@H](O[C@@H]2O[C@H](C)C[C@H](N(C)C)[C@H]2O)[C@](C)(O)C[C@@H](C)CN(C)[C@H](C)[C@@H](O)[C@]1(C)O` [azithromycin], the “increase of mean level of di-C22:6-BMP in urine compared to controls, Day 11” value in data set [1] (Day 11, n=5 rats per group) was 2.6 fold. Besides, the “increase of mean level of di-C22:6-BMP in urine compared to controls, Day 17” value in data set [1] (Day 17, n=5 rats per group) is given as roughly 4.5 fold.

With `CCN(CC)CCCC(C)Nc1ccnc2cc(Cl)ccc12` (stereo not drawn) [chloroquine], the “level of di-22:6-PG in urine” value in data set [2] was “not”.

Take `CCCCc1oc2ccccc2c1C(=O)c1cc(I)c(OCCN(CC)CC)c(I)c1` [amiodarone]: in data set [3], the “increase in total BMP in BAL cells compared to control subjects” value is “+64%” and the “increase in total PG in BAL cells compared to control subjects” value is “+1866%”. For the same molecule, the “level of di-22:6-PG in urine” value in data set [2] was “increased”.
